According to paper PMC516463 (Evidence-based Complementary and Alternative Medicine, 2004):

System: HIV-1
Conditions: 10 μM, control inhibitor of infection

Which “Inhibition of HIV-1 infection of MAGIC-5B cells (in words)” value does the source give for `Cc1cn([C@H]2C[C@H](N=[N+]=[N-])[C@@H](CO)O2)c(=O)[nH]c1=O` [AZT] here?
Its value is “totally suppressed”.
